{"source": "patent US10969380B2", "about": "“Simultaneous detection of cannibalism and senescence as prognostic marker for cancer” (Institut Gustave-Roussy, priority 2012, dated 2021)", "key": {"[1]": {"system": "HCT116 cells", "experiment": "SA-β-Gal senescence assay in HCT116 cells", "assay_type": "cell-based, human", "settings": "20 μM Kaempferol, 24 hours", "protocol": "FIG. 4. Cellular cannibalism leads to senescence. (A,B) Effects of cellular cannibalism on cell proliferation. After cell sorting, cell proliferation of TP53 or Δ133TP53 knocked down and TP53 knocked out single or cannibal cells were performed during 6 days. (C-H) Effects of cellular cannibalism on senescence induction. Cannibal cells mediated by TP53 knockout or Δ133TP53 knockdown were examined in EdU incorporation assay (C,D), in DNA damage response (E,F) and in SA-β-Gal assay (G,H). (C) Determination of EdU incorporation on cannibal cells induced by Δ133TP53 knockdown, or TP53 knockout. […] The number of EdU positive single or cannibal cells per total number of cells examined (at least 300 per well) was recorded. […] (F) Quantification of DNA damage foci in single and cannibal cells after TP53 or Δ133TP53 inactivation. The percentage of γ-H2AX^+ cells or p53BP1^+ cells were determined by confocal microscopy. […] (I) p21^WAF1 expression during coculture of Tp53^+/+ or TP53^−/− cells, P21^WAF1 expression was determined by immunoblot. […] (K) Quantification of p21^WAF1 expression in single and cannibal cells after TP53 or Δ133TP53 inactivation. The percentage of […]21WAF^+ cells in cannibal cells was determined by confocal microscopy. […] P21^WAF1 expression was determined by immunoblot. […] Quantification of SA-β Gal positive cells were realized as described above (n=3; means±SEM; *P <0.01). […]"}, "[2]": {"system": "human primary keratinocytes (HEKn)", "experiment": "SA-β-Gal senescence assay in human primary keratinocytes", "assay_type": "cell-based", "settings": "HEKn after fifth passage; 20 μM Kaempferol, 24 hours", "protocol": "FIG. 12. Identification of entescence as a non-cell autonomous senescence. (A) Effects of P2Y2 inhibition on SA-β Gal activity of human primary keratinocytes. After the fifth passages, human primary keratinocytes were cultured during 24 hours in presence or in absence of 20 μM of P2Y2 inhibitor Kaempferol. The number of SA-β Gal positive single or cannibal cells per total number of cells examined (at least 300 per well) was recorded and frequencies of SA-β Gal positive were determined. Error bars represent means±SEM (n=3; *p <0.01). (B) Effects of P2Y2 inhibition on SA-β Gal activity detected after g-irradiation or mithoxantron treatment. […] Then as described above frequencies of SA-β Gal positive were determined (means±SEM; n=3; *p <0.01). […] As previously described, the number of SA-β Gal positive single or cannibal cells per total number of cells examined (at least 300 per well) was recorded (means±SEM; n=3; *p <0.01). […] P21WAF1 expression was also analyzed using antibody against p21^WAF1 (green). […] (F-H) Effects of P2Y2 depletion on DNA damage foci formation, p21^WAF1 expression and SA-β Gal activity detected after Δ133p53. After P2Y2 depletion, the percentage of Δ133p53 depleted cells showing positivity for γ-I-H2AX^+ or p21^WAF1 expression were determined by confocal microscopy (G,H) and analyzed for p Gal activity (Means±SEM; n=3; *P <0.01). […]"}}, "data": [{"smiles": "O=c1c(O)c(-c2ccc(O)cc2)oc2cc(O)cc(O)c12", "note": "[kaempferol]", "values": [{"measurement": "senescence (frequency of senescent, SA-β-Gal-positive cannibal cells) after treatment with IR or with MTX", "setting": "[1]", "value": "strongly reduced senescence"}, {"measurement": "senescence (frequency of senescent, SA-β-Gal-positive cannibal cells) during replicative stress", "setting": "[2]", "value": "strongly reduced senescence"}]}]}
